Experimental data published in publication PMC12430443, “Discovery of Novel Benzamide-Based Sigma-1 Receptor Agonists with Enhanced Selectivity and Safety” (Molecules, 2025).

Experiments:
D4.4 = D4.4 (Homo sapiens, UniProt P21917); assay: Off-target panel of recombinant human receptors; type: cell-based; details: 10 µM, duplicate; % inhibition of reference agonist activity
Procedure: (§1) Among the synthesized compounds, four derivatives were selected based on their affinity and selectivity profiles. […] The remaining compounds (2, 3, 6, and 7) were assessed for their agonist and antagonist activities across a panel of 58 receptors relevant to CNS disorders, including serotonin, adenosine, adrenergic, cannabinoid, dopamine, histamine, and muscarinic receptors. These assays were conducted at a concentration of 10 µM, in duplicate, utilizing aequorin [19], cAMP HTRF™ [20], and GTPγS binding assays, as detailed in Table 2. […] Specifically, compound 6 antagonized four receptors (5-HT2A, 5-HT2C, α1a, H1), while compound 7 was active against five receptors (5-HT2A, 5-HT3, α1a, H1, M1).
(§2) Agonist and antagonist activities of the test compound are expressed as the percentage of the activity of the reference agonist at its EC100 concentration or the percentage of inhibition of the reference agonist activity at its EC80 concentration, respectively.

CXCR1 = CXCR1 (Homo sapiens, UniProt P25024); assay: Off-target panel of recombinant human receptors; type: cell-based; details: 10 µM, duplicate; % inhibition of reference agonist activity
CXCR1, sequence (P25024 whole entry): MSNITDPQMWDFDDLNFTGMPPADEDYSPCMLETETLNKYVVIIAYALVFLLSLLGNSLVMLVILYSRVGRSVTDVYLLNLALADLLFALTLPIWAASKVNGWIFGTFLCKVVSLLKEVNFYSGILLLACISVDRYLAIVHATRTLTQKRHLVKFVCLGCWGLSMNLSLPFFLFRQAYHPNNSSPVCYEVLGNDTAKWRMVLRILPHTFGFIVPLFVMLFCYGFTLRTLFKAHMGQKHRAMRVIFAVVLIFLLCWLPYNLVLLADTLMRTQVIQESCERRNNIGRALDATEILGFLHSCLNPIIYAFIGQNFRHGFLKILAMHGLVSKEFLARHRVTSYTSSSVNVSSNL
Procedure: as §1, §2

adrenergic α1a receptor = adrenergic α1a receptor (Homo sapiens, UniProt P35348); assay: Off-target panel, aequorin functional assay; type: cell-based; details: 10 µM, duplicate; % inhibition of reference agonist activity
adrenergic α1a receptor, sequence (P35348 whole entry): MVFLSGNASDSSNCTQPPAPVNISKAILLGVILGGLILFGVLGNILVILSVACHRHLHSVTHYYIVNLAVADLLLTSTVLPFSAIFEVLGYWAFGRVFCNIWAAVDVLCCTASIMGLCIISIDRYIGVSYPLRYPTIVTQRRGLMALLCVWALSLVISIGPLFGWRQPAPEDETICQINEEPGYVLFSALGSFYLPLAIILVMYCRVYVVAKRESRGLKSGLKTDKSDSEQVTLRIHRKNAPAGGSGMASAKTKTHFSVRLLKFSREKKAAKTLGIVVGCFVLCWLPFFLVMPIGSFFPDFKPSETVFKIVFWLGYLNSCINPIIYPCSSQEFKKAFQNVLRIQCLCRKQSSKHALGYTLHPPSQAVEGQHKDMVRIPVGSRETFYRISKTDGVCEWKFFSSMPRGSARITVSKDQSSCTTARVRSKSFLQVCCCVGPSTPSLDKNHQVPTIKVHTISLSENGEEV
Procedure: as §1
(§3) Rapidly, the tests were performed by Euroscreen (https://euroscreenfast.com/) with recombinant human G-coupled receptor-expressing cell lines using aequorin functional assays for serotonin 5-HT2A, 5-HT2B, 5-HT2C, 5-HT3, and 5-HT5A, adrenergic α1a and α1b, angiotensin AT1, cholesistokinin CCFK1, endothelin ETA, histamine H1, muscarinic M1 and M3, neurokinin NK1 and NK2, vasopressin V1a, and vasoactive intestinal peptide VPAC1 receptor analysis. Then, cAMP HTRF^TM assays were used to analyze serotonin 5-HT1A, 5-HT4E, 5-HT6, and 5-HT7, adenosine A1, A2A, and A3, adrenergic β1 and β2, cannabinoid CB1, dopamine D1, histamine H2, and neuropeptide Y NPY receptors. GTPγS^35 assays were used to analyze serotonin 5-HT1B, adrenergic α2a and α2b, dopamine D2, muscarinic M2 and M4, opioid δ, κ and µ, and somatostatine SST4 receptors.
as §2
(§4) For the aequorin assays, different cell lines co-expressing the receptors were grown in specific culture media and incubated for 4 h with coelenterazine h. For agonist testing, cell suspensions were mixed with test or reference agonists in a 96-well plate. For antagonist testing, the reference agonist at its EC80 (final concentration) was injected to the mix the containing cells and the tested compound. The resulting emission of light was recorded using the Hamamatsu Functional Drug Screening System 6000 [19].

[1] = target: serotonin 5-HT2C receptor (Homo sapiens, UniProt P28335); assay: Off-target panel, aequorin functional assay; type: cell-based; details: 10 µM, duplicate; % inhibition of reference agonist activity
serotonin 5-HT2C receptor, sequence (P28335 33-458): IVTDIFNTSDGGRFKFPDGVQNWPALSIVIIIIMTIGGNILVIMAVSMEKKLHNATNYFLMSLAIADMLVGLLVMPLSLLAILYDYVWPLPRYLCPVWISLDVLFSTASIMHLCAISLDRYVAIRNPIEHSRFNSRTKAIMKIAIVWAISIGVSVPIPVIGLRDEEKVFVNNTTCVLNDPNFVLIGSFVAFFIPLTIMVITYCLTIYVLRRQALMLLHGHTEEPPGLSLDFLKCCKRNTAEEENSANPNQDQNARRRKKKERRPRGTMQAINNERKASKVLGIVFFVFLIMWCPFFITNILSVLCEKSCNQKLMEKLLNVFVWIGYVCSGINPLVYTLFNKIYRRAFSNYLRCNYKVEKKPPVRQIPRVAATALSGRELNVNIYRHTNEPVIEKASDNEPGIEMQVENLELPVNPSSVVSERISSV
Procedure: as §1, §3, §2, §4

adrenergic α1b receptor = adrenergic α1b receptor (Homo sapiens, UniProt P35368); assay: Off-target panel, aequorin functional assay; type: cell-based; details: 10 µM, duplicate; % inhibition of reference agonist activity
adrenergic α1b receptor, sequence (P35368 whole entry): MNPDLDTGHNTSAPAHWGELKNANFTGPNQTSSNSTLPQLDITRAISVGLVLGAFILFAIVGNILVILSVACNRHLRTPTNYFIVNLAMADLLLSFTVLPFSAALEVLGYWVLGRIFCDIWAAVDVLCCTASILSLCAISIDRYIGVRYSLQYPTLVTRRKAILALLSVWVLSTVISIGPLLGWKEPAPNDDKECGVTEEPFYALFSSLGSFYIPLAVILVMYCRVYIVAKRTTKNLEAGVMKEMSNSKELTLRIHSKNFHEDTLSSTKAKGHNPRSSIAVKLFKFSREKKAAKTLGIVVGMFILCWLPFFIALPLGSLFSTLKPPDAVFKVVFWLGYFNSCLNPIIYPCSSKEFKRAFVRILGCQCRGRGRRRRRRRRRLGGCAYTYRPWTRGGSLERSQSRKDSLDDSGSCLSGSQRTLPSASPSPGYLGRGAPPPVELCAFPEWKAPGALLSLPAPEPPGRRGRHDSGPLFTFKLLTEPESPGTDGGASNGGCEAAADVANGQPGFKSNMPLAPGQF
Procedure: as §1, §3, §2, §4

serotonin 5-HT3 receptor = serotonin 5-HT3 receptor (Homo sapiens, UniProt P46098); assay: Off-target panel, aequorin functional assay; type: cell-based; details: 10 µM, duplicate; % inhibition of reference agonist activity
Procedure: as §1, §3, §2, §4

S1R-BiP complex = target: T1, S1R-BiP complex (Cricetulus griseus, UniProt A0A3L7I3A5); assay: S1R-BiP complex dissociation, co-immunoprecipitation and BiP ELISA in CHO cells; type: cell-based; details: for S1R-BiP complex levels: 10 µM
T1 construct: host or cells: CHO cells
T1 sequence (A0A3L7I3A5 1-223, one chain of several): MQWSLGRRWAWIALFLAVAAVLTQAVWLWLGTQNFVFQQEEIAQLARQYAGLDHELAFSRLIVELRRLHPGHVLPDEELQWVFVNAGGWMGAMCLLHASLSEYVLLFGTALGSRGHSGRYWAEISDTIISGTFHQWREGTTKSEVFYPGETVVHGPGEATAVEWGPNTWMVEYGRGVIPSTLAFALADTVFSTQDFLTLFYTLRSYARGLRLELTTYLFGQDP
Procedure: The interaction between S1R and BiP provides a reliable assay to identify S1R ligands by monitoring the dynamics of the S1R-BiP complex. In this assay, the known S1R agonist PRE-084 and antagonist NE-100 were used as controls (Figure 3).
The ability of the compounds to promote dissociation of the S1R–BiP complex was assessed by Amylgen (Montferrier-sur-Lez, France) as described in [22, 23]. CHO cells were treated with the test compounds for 30 min at 37 °C, followed by crosslinking with dithiobis(succinimidyl propionate) (DSP; Thermo Scientific, Waltham, MA, USA). Cells were lysed after 15 min on ice, and the lysates were centrifuged. Supernatants were incubated overnight at 4 °C with an anti-S1R antibody (Abcam, Cambridge, UK), and then with Protein A-Sepharose (Invitrogen). After the first centrifugation, pellets were resuspended in radioimmunoprecipitation assay (RIPA) buffer, centrifuged again, and resuspended in 2× sample buffer/bMCE buffer. Following a third centrifugation, the supernatants were analyzed for BiP immunoreactivity using an ELISA kit (SEC343Mu, USCNK Life Sciences, Wuhan, China).
Figure 3 In vitro evaluation of agonist activity of compounds 2, 3, and 6: The effects of compounds 2, 3, and 6 at 1 and 10 µM on the S1R-BiP association after 30 min of incubation were analyzed by co-immunoprecipitation using an anti-S1R antibody (red). BiP levels were quantified by ELISA. PRE-084 (white) and NE-100 (black) served as the reference agonist and antagonist, respectively (10 µM). Agonist activity was confirmed by its blockade with NE-100 (black hatching). […] Data represent the mean ± SEM from n = 6 per condition. Statistical significance was assessed using Dunnett’s test: *** p < 0.0001, * p < 0.05 vs. untreated control; ### p < 0.0001, # p < 0.05 for NE-100 blockade.

[2] = Cytotoxicity, MTT/MTS assay; type: cell-based, human; details: human, SH-SY5Y neuroblastoma cells; percentage of cell death after 24 h treatment at 100 µM (duplicate); read-out: SY5Y % Cytotox
Procedure: (§5) To assess potential cytotoxicity in CNS-relevant cells, human neuroblastoma (SH-SY5Y) cells were exposed to compounds 2–7 at concentrations up to 100 μM. Cell viability was measured using the MTT assay.
(§6) Cytotoxicity was assessed in human SH-SY5Y neuroblastoma cells cultured in Dulbecco’s Modified Eagle Medium (DMEM, Gibco, Thermo Fisher Scientific Inc., Waltham, MA, USA) supplemented with 2 mM L-glutamine, 100 μg/mL streptomycin, 100 IU/mL penicillin, 1 mM non-essential amino acids (all from Invitrogen, Thermo Fisher Scientific Inc., Waltham, MA, USA), and 10% (v/v) heat-inactivated fetal bovine serum (Sigma-Aldrich, Burlington, MA, USA). Cells were maintained at 37 °C in a humidified 5% CO2 atmosphere and serum-starved for 24 h to synchronize cultures before treatment with the test compounds at final concentrations of 100, 50, 10, 5, 1, 0.5, 0.1, or 0.05 μM (all in <0.1% DMSO). […] Absorbance was measured at 490 nm, and the results were expressed as a percentage relative to untreated control cells (set at 100%).

[3] = system: SH-SY5Y neuroblastoma cells; assay: Cytotoxicity, MTT/MTS assay; type: cell-based, human; details: for IC50 (SY5Y)/ Ki (S1R): selectivity index, IC50 was considered > 100 µM
Procedure: as §5, §6

S1R = target: T2, S1R (Homo sapiens, UniProt Q99720); assay: S1R competitive radioligand binding, [3H](+)-pentazocine, Jurkat cell membranes; details: for IC50: [3H]-(+)-pentazocine displacement, n = 2; for IC50 / Ki: Jurkat cell membranes; for Ki (S2R)/ Ki (S1R): selectivity ratio S2R/S1R; for Ki: [3H](+)-pentazocine, mean of 2–3 independent experiments
T2 construct: For the S1R assay, Jurkat cell membranes (10–20 μg protein/tube) were incubated at 37 °C for 2 h; host or cells: Jurkat cell membranes
T2 sequence (Q99720 whole entry): as the sequence (A0A3L7I3A5 1-223, one chain of several) above, with S4A, L5V, I12A, F15L, A25V, N34S, Q39R counted along it
Excerpt: (§7) S1R and S2R affinities were classically evaluated through competitive binding assays using radioligands, following the protocol described by Ganapathy et al.. The selective radioligand [^3H] (+)-pentazocine was employed as the classic prototypical ligand, selectively binding to the orthosteric S1R-binding sites. […] Jurkat cell membranes served as the receptor source in both assays. The equilibrium dissociation constants (Ki) for S1R and S2R were derived from the IC50 values of each compound, and selectivity ratios (S2R/S1R) were subsequently calculated (Table 1, Figures S2 and S3).
(§8) Binding assays were performed by Eurofins Cerep (Poitiers, France) according to the protocol of Ganapathy. […] For the S2R assay, Jurkat cell membranes (10–20 μg protein/tube) were incubated at room temperature for 1 h in the same buffer with [^3H]-DTG (25 nM) in the presence of (+)-pentazocine (1 μM) to saturate S1R, along with a range of test compound concentrations. Bound radioactivity was quantified by liquid scintillation counting. Nonspecific binding was determined under identical conditions in the presence of 10 μM unlabeled haloperidol. The IC50 values (concentration causing a half-maximal inhibition of control-specific binding) and Hill coefficients (nH) were determined by non-linear regression analysis of the competition curves generated with mean replicate values using Hill equation curve-fitting. This analysis was performed using software developed at Cerep (Hill software) and validated by comparison with data generated by the commercial software SigmaPlot ®4.0 for Windows® (©1997 by SPSS Inc.). Inhibition constants (Ki) were calculated from IC50 values using the method of Cheng and Prusoff.

S2R = target: T3, S2R (Homo sapiens, UniProt Q5BJF2); assay: S2R competitive radioligand binding, [3H]-DTG with excess (+)-pentazocine, Jurkat cell membranes; details: for IC50: [3H]-DTG displacement with excess (+)-pentazocine, n = 2; for Ki: [3H]-DTG with (+)-pentazocine, mean of 2–3 independent experiments
T3 construct: For the S2R assay, Jurkat cell membranes (10–20 μg protein/tube) were incubated at room temperature for 1 h; host or cells: Jurkat cell membranes
T3 sequence (Q5BJF2 whole entry): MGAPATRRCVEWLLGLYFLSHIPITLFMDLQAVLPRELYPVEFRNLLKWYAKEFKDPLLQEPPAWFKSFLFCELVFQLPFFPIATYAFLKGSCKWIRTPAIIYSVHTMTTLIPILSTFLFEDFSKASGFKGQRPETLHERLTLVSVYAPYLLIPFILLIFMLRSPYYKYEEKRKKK
Excerpt: as §7, §8

CYP3A = system: CYP3A; design: method as in PMID 36233193; details: at 10 µM; cited from earlier work
muscarinic M1 receptor = muscarinic M1 receptor (Homo sapiens, UniProt P11229); design: method as in PMID 11897056; details: 10 µM; cited from earlier work
muscarinic M1 receptor, sequence (P11229 whole entry): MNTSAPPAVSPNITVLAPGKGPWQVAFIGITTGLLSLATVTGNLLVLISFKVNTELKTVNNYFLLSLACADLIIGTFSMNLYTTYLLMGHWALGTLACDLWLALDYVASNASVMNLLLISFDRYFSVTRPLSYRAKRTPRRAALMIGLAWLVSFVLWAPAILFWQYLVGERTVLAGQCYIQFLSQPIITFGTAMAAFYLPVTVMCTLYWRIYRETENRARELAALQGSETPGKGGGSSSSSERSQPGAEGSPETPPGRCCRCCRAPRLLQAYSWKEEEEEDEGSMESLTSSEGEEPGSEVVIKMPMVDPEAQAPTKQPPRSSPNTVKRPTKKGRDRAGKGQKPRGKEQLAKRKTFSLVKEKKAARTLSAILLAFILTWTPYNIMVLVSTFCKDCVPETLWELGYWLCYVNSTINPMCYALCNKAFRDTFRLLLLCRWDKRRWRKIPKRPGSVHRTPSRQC

CYP2C19 = target: T4, CYP2C19 (Homo sapiens, UniProt P33261); design: method as in PMID 36233193; details: at 10 µM; cited from earlier work
T4 construct: tissue Eurofins Cerep (assay provider); host or cells: human liver microsomes

histamine H1 receptor = histamine H1 receptor (Homo sapiens, UniProt P35367); design: method as in PMID 11897056; details: 10 µM; cited from earlier work
histamine H1 receptor, sequence (P35367 whole entry): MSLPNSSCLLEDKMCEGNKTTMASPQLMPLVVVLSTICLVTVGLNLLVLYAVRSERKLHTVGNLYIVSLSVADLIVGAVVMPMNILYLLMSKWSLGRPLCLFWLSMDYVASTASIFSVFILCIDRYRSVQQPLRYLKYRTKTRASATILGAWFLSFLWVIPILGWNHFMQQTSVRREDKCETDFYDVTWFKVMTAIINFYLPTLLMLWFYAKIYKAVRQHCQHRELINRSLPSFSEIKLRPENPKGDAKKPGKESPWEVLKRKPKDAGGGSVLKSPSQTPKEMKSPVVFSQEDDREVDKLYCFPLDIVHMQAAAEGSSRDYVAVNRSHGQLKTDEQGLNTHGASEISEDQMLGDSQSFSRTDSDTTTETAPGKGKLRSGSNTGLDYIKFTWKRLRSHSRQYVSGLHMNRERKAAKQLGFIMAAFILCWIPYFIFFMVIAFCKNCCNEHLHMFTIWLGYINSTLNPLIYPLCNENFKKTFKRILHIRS

CYP1A = system: CYP1A; design: method as in PMID 36233193; details: at 10 µM; cited from earlier work
MRP2 = MRP2 (Homo sapiens, UniProt Q92887); design: method as in PMID 36233193; details: at 10 µM; ABC family; cited from earlier work
MRP2, sequence (Q92887 whole entry): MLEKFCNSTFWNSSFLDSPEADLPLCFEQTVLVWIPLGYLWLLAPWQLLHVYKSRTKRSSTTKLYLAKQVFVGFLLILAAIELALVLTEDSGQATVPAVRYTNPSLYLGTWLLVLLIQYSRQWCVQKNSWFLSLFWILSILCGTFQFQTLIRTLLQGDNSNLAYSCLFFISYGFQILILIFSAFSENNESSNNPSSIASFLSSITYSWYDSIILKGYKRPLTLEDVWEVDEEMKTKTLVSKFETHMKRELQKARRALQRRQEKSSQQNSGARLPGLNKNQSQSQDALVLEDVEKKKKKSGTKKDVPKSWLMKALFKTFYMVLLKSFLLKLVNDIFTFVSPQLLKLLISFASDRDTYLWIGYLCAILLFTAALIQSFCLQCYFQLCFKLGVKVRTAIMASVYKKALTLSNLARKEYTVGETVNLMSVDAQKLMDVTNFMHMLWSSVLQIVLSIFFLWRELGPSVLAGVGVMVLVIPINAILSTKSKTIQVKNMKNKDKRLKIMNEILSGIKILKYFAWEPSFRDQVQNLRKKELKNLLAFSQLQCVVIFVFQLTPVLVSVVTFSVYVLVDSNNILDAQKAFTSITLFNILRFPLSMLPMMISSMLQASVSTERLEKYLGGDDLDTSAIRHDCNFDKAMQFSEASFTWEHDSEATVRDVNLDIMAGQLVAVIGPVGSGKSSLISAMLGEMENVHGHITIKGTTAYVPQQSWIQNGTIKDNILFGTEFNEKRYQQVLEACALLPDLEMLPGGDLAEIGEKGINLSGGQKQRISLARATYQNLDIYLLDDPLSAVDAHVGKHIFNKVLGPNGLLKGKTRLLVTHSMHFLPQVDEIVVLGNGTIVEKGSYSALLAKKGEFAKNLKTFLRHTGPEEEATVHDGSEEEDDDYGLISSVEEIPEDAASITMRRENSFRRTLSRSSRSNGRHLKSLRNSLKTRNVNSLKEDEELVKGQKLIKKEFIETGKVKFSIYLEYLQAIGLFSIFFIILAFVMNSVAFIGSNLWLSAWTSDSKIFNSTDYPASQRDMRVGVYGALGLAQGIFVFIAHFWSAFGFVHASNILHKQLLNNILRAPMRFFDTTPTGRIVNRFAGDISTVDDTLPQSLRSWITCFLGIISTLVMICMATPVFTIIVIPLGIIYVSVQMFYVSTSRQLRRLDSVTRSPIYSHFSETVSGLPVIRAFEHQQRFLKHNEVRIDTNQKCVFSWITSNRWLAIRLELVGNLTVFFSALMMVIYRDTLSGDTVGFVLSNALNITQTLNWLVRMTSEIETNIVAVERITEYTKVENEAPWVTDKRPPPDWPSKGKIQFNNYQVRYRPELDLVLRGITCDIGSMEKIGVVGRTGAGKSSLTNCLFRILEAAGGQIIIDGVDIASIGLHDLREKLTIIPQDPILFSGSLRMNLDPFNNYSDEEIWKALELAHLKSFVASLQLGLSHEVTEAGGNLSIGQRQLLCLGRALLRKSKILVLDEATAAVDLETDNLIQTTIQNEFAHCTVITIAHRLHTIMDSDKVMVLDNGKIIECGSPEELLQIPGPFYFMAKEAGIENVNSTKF

Caco-2 cell line = system: Caco-2 cell line; design: method as in PMID 36233193; details: 10 µM, cited from earlier work
hERG channel = target: T5, hERG channel (Homo sapiens, UniProt Q12809); design: method as in PMID 36233193; details: ratio; cited from earlier work
T5 construct: host or cells: CHO-K1

[4] = design: method as in PMID 36233193; details: 10 µM; cited from earlier work
[5] = design: method as in PMID 36233193; details: 10 µM; cited from earlier work; remark: listed apart in the source
[6] = design: method as in PMID 36233193; details: cited from earlier work

CN(CCC(=O)NCc1ccc(Cl)cc1)Cc1ccccc1 [Compound 3, 3-(Benzylmethylamino)-N-(4-chlorobenzyl)propanamide]
D4.4 [b] antagonist activity (D4.4): 84%
CXCR1 [b] antagonist activity (CXCR1): 54%
α1a [b] antagonist activity (adrenergic α1a receptor): 88%
5-HT2C [b] antagonist activity [1]: 76%
α1b [b] antagonist activity (adrenergic α1b receptor): 65%
5-HT3 [b] antagonist activity (serotonin 5-HT3 receptor): 72%
Dissociation of the S1R-BiP complex (in words) (S1R-BiP complex; 1 and 10 µM, 30 min incubation, CHO cells, n = 6): significant, dose-dependent dissociation
Dissociation of S1R-BiP complex in the presence of NE-100 (in words) (S1R-BiP complex; co-treatment with NE-100 (10 µM)): completely inhibited
cytotoxicity at 24 h, 100 µM [2]: 1%
IC50 (SY5Y)/ Ki (S1R) [3]: >58,823
IC50 (S1R): 3.3 nM
Ki (S2R)/ Ki (S1R) (S1R): 241
IC50 (S2R): 540 nM

CN(CCC(=O)NCc1ccc(Cl)cc1Cl)Cc1ccccc1 [Compound 5, 3-(Benzylmethylamino)-N-(2,4-Dichlorobenzyl)propanamide]
cytotoxicity at 24 h, 100 µM [2]: 37%
IC50 (SY5Y)/ Ki (S1R) [3]: >43,478
IC50 (S1R): 4.5 nM
Ki (S2R)/ Ki (S1R) (S1R): 52
IC50 (S2R): 160 nM

CCCN(CCC)CCc1ccc(OC)c(OCCc2ccccc2)c1 [NE-100, reference compound]
S1R-BiP complex levels (S1R-BiP complex; 30 min incubation, CHO cells): 90–100 % of the control

CN(CCC(=O)NCc1ccc([N+](=O)[O-])cc1)Cc1ccccc1 [Compound 7, 3-(Benzylmethylamino)-N-(4-Nitrobenzyl)propanamide]
cytotoxicity at 24 h, 100 µM [2]: 9%
IC50 (SY5Y)/ Ki (S1R) [3]: >909
Ki (S1R): 110 nM
IC50 (S1R): 220 nM
Ki (S2R)/ Ki (S1R) (S1R): 59
IC50 (S2R): 8600 nM

CN(CCCNC(=O)c1ccc(Cl)cc1)Cc1ccccc1 [Compound 1]
CYP inhibition 3A (CYP3A): 36.9%
M1 antagonist activity (in words) (muscarinic M1 receptor): antagonist activity
CYP inhibition 2C19 (CYP2C19): 36.2%
H1 activity (in words) (histamine H1 receptor): no activity
CYP inhibition 1A (CYP1A): 2.1%
Drug transport inhibition MRP2 (MRP2): −18.6%
Permeability A/B pH7.4/7.4 (Caco-2 cell line; Caco-2): 29.1 ×10^−6 cm/s
Permeability B/A pH7.4/7.4 (Caco-2 cell line; Caco-2): 66.1 ×10^−6 cm/s
e-ratio (Caco-2 cell line; efflux ratio Papp(B→A)/Papp(A→B)): 2.3
IC50 (hERG)/Ki (σ1) (hERG channel): 312
Plasma protein binding [4]: 94%
cytotoxicity at 24 h, 100 µM [2]: 28%
IC50 (SY5Y)/ Ki (S1R) [3]: >31,250
Ki (S1R): 3.2 nM
IC50 (S1R): 6.3 nM
Human liver microsome half-life t1/2 [5]: >1 h
IC50 (S2R): 255 nM
Ki (S2R): 190 nM
Mouse plasma t1/2 [6]: 25.9 h

3-(Benzylmethylamino)-N-(3-bromobenzyl)propanamide [Compound 4]
SY5Y % Cytotox ([3]; 100 µM): 6%
Ki (S1R): > 200 nM
Ki (S2R): > 200 nM

O=C(OCCN1CCOCC1)C1(c2ccccc2)CCCCC1 [PRE-084, reference compound]
S1R-BiP complex levels (S1R-BiP complex; 30 min incubation, CHO cells): less than 50 % of the control
